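In this assay, cells in 96-well plates receive the compound at five concentrations for 48 hours. Endpoints are linearly interpolated between the surrounding concentrations. At the TGI there is no net growth.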 Where a SMILES comes first, the peptide text is derived from it. The star is where a group is joined. Boc = CC(C)(C)OC(=O)*
Tests used:
Test in all cases: DTP human tumour cell line panel, 48 h
[1] = tested on: 786-0 renal
[2] = tested on: A549 NSCLC
[3] = tested on: ACHN renal
[4] = tested on: BT-549 breast
[5] = tested on: CAKI-1 renal
[6] = tested on: CCRF-CEM leukemia
[7] = tested on: DU-145 prostate
[8] = tested on: HCC-2998 colon
[9] = tested on: HCT-116 colon
[10] = tested on: HCT-15 colon
[11] = tested on: HL-60(TB) leukemia
[12] = tested on: HOP-62 NSCLC
[13] = tested on: HT29 colon
[14] = tested on: IGROV1 ovarian
[15] = tested on: K-562 leukemia
[16] = tested on: LOX IMVI melanoma
[17] = tested on: M14 melanoma
[18] = tested on: MALME-3M melanoma
[19] = tested on: MCF7 breast
[20] = tested on: MDA-MB-231 breast
[21] = tested on: MDA-MB-435
[22] = tested on: MDA-N
[23] = tested on: MOLT-4 leukemia
[24] = tested on: NCI-H226 lung
[25] = tested on: NCI-H23 lung
[26] = tested on: NCI-H460 lung
[27] = tested on: NCI-H522 lung
[28] = tested on: OVCAR-3 ovarian
[29] = tested on: OVCAR-4 ovarian
[30] = tested on: OVCAR-5 ovarian
[31] = tested on: OVCAR-8 ovarian
[32] = tested on: PC-3 prostate
[33] = tested on: RPMI-8226 leukemia
[34] = tested on: SF-268 CNS
[35] = tested on: SK-MEL-2 melanoma
[36] = tested on: SK-MEL-28 melanoma
[37] = tested on: SK-MEL-5 melanoma
[38] = tested on: SN12C renal
[39] = tested on: SNB-19 CNS
[40] = tested on: SNB-75 CNS
[41] = tested on: SR leukemia
[42] = tested on: SW-620 colon
[43] = tested on: T-47D breast
[44] = tested on: TK-10 renal
[45] = tested on: U251 CNS
[46] = tested on: UACC-257 melanoma
[47] = tested on: UACC-62 melanoma
[48] = tested on: UO-31 renal
[49] = tested on: A498 renal
[50] = tested on: COLO 205 colon
[51] = tested on: EKVX NSCLC
[52] = tested on: HOP-92 NSCLC
[53] = tested on: NCI/ADR-RES ovarian
[54] = tested on: SF-295 CNS
[55] = tested on: SK-OV-3 ovarian
[56] = tested on: HS 578T breast
[57] = tested on: KM12 colon
[58] = tested on: RXF 393 renal
[59] = tested on: SF-539 CNS

Measured: TGI

COC(=O)C(Cc1c[nH]c2ccccc12)NC(=O)C(Cc1c[nH]c2ccccc12)NC(=O)C(Cc1c[nH]c2ccccc12)NC(=O)C(Cc1c[nH]c2ccccc12)NC(=O)C(Cc1c[nH]c2ccccc12)NC(=O)C(Cc1c[nH]c2ccccc12)NC(=O)C(Cc1c[nH]c2ccccc12)NC(=O)OC(C)(C)C (configuration not stated) (Boc-WWWWWWW-OMe; configuration not given here)
87.9 µM: [35]
58.9 µM: [17]
not listed: [49] | [50] | [51] | [52] | [53] | [54] | [55] | [56] | [57] | [58] | [59]
> 100 µM: all other assays above

CN(C)C=N[C@@H](C(=O)O)c1ccccc1
not listed: [5] | [27] | [35] | [56] | [57] | [58] | [59]
> 100 µM: all other assays above

COc1ccc(/C=c2\[nH]c3nc(=O)c(N4CCCCC4)c(N)n3c2=O)cc1
78.7 µM: [40]
not listed: [4] | [12] | [26] | [28] | [32] | [35] | [47]
> 100 µM: all other assays above

CCOC(=O)c1cc2c3c(c(C(C)=O)c(OC)c2[nH]1)N(C(=O)CC)CC3
40.4 µM: [19]
42.9 µM: [38]
24.5 µM: [37]
31 µM: [53]
30.5 µM: [13]
49.4 µM: [46]
40.9 µM: [20] | [29]
41.7 µM: [59]
26.2 µM: [33]
45.4 µM: [43]
50.3 µM: [21]
47.6 µM: [45]
34.9 µM: [1]
72.7 µM: [32]
25 µM: [25]
39.1 µM: [54]
28.9 µM: [52]
45.3 µM: [26]
57.1 µM: [40]
48.3 µM: [35]
56.9 µM: [12]
57.9 µM: [56]
36.6 µM: [34]
89.5 µM: [30]
> 100 µM: [49] | [55] | [42]
30.9 µM: [9]
46.9 µM: [31]
76.5 µM: [8]
30.6 µM: [51]
34.2 µM: [10] | [24]
26.5 µM: [39]
39.4 µM: [22]
44.7 µM: [36]
30 µM: [14]
71.4 µM: [6]
35.9 µM: [5] | [23]
41.8 µM: [50]
38.7 µM: [2]
26.3 µM: [57]
47.1 µM: [4]
37.2 µM: [58]
50.5 µM: [15] | [17]
35.8 µM: [18]
27 µM: [48]
34.4 µM: [28] | [47]
46.7 µM: [11]
29.6 µM: [7] | [16]

Source: PubChem BioAssay (NCI)
